Measured values published in PubChem BioAssay (NCI).
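Five concentrations, 48 hours, 96-well plates. GI50 is the concentration that inhibits growth by half. At the TGI there is no net growth.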

Tests used:
Experiment in all cases: inhibition of tumour cell growth, NCI panel, 48 h
IGROV1 ovarian = test system: IGROV1 ovarian
MDA-MB-435 = test system: MDA-MB-435
OVCAR-5 ovarian = test system: OVCAR-5 ovarian
UACC-62 melanoma = test system: UACC-62 melanoma
HCC-2998 colon = test system: HCC-2998 colon
RXF 393 renal = test system: RXF 393 renal
SK-MEL-5 melanoma = test system: SK-MEL-5 melanoma
KM12 colon = test system: KM12 colon
T-47D breast = test system: T-47D breast
BT-549 breast = test system: BT-549 breast

Structure (SMILES)	TGI (IGROV1 ovarian) [µM]	TGI (MDA-MB-435) [µM]	TGI (OVCAR-5 ovarian) [µM]	TGI (UACC-62 melanoma) [µM]	TGI (HCC-2998 colon) [µM]	TGI (RXF 393 renal) [µM]	TGI (SK-MEL-5 melanoma) [µM]	TGI (KM12 colon) [µM]	TGI (T-47D breast) [µM]	TGI (BT-549 breast) [µM]	GI50 (IGROV1 ovarian) [µM]	GI50 (MDA-MB-435) [µM]	GI50 (OVCAR-5 ovarian) [µM]	GI50 (UACC-62 melanoma) [µM]	GI50 (HCC-2998 colon) [µM]	GI50 (KM12 colon) [µM]	GI50 (RXF 393 renal) [µM]	GI50 (SK-MEL-5 melanoma) [µM]	GI50 (BT-549 breast) [µM]
COc1cc(CNC(=S)CCCCCCCCCCC(C)C)ccc1O	> 100	> 100	> 100	> 100	> 100	> 100	> 100	94.4	97.5										
CCOC(=O)CCC(NC(=O)OCc1ccccc1)C(=O)NC(CCC(=O)OCC)C(=O)NC(CCC(=O)OCC)C(=O)NNC(=O)OC(C)(C)C (centres undefined)	> 100		> 100	> 100	> 100	> 100	> 100			> 100									
CC(C)(Cc1ccccc1)N1C(=O)N1C(C)(C)Cc1ccccc1	> 100	> 100	83.1	> 100	> 100	48.3	43.4	> 100	> 100	> 100									
Cc1nc2cccc(F)c2c(=O)n1-c1nnc(C(F)(F)F)s1	> 10	> 10	> 10	> 10	> 10	> 10	> 10	> 10	> 10										
CCN(CC)/[N+]([O-])=N/O	> 100		> 100	> 100	> 100	> 100	> 100	> 100											
CCN(CCCl)c1cccc(NC(=O)c2ccc(C(=O)Nc3cccc(CN(C)C)c3)cc2)c1	1.13	0.114	32	0.309	0.368	0.0298			0.662										
CC(C#N)N(CCc1ccccc1)C(=O)c1ccccc1 (centres undefined)	> 100	> 100	> 100	> 100	> 100	> 100	> 100	> 100	> 100	> 100									
NNC(=O)Cn1ccnn1	> 100	> 100	> 100		> 100		> 100	> 100		> 100									
COC(=O)c1cc(C)ccc1C1CN=NC12Cc1c(C)cc(C)cc1C2=O (centres undefined)	> 100	> 100	> 100	49.6	78.2	72.5	31.6	39.1	> 100	69.3									
CCN(CC)C1Oc2cc3c(cc2C(c2cc(OC)c(OC)c(OC)c2)C1C)OCO3 (centres undefined)	> 63.2	0.535	> 47.8	98.5	19.8	> 44.1	6.68	30.7	> 88.7	> 58.4									
COc1cccc(NC(=O)CC(=O)N2N=C(C)C(N=Nc3ccc(C(=O)O)cc3)C2=O)c1 (centres undefined)	> 100	> 100	> 100	> 100	> 100	> 100	> 100	> 100	> 100	> 100									
O=[N+]([O-])c1cc(F)ccc1Sc1ccccc1	> 10	> 10	> 10	> 10	> 10	> 10	> 10	> 10	> 10	> 10									
C=C(C)[C@@H]1CC[C@]2(CO)CC[C@]3(C)[C@H](CC[C@@H]4[C@@](C)(CCCN)[C@H](C(=C)C)CC[C@]43C)[C@@H]12	3.22	3.16	3.04	3.09	3.3			3.06			1.76	1.72	1.68	1.71	1.79	1.58			
NC1c2c(Cl)sc(Cl)c2C(=O)C1O (centres undefined)	> 100	> 100	> 100	43.7	30.7	25.7	86.6	> 100	> 100	47.6									
CC(=O)O[C@H]1CCC2[C@@H]3CCC4NC(=O)C(C#N)C[C@]4(C)C3CC[C@@]21C (some centres undefined)	> 10	> 10	> 10	> 10	> 10	> 10	> 10	> 10	> 10	> 10									
C[PH+](c1nc2ccccc2nc1[PH+](C)C(C)(C)C)C(C)(C)C.C[PH+](c1nc2ccccc2nc1[PH+](C)C(C)(C)C)C(C)(C)C.[Au+].[Cl-] (centres undefined)		0.158	0.457	0.165	0.302	0.449	0.105	0.131		0.0961		0.0345	0.0441	0.0371	0.0296	0.0314	0.103	0.0329	0.0324
